Test results reported in publication PMC2818873 (Bioorganic & medicinal chemistry, 2009).

Key:
P. carinii DHFR = target: T1, P. carinii DHFR (Pneumocystis carinii, UniProt P16184); assay type: biochemical; details: IC50 rat liver DHFR / IC50 P. carinii DHFR
T1 sequence (P16184 1-206): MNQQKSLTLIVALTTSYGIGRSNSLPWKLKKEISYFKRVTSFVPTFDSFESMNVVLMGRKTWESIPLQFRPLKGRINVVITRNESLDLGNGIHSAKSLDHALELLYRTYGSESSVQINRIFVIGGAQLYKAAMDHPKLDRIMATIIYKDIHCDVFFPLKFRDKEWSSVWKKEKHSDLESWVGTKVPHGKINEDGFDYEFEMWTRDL

[1] = tested on: folyl poly-γ-glutamate synthetase (FPGS); details: cited from earlier work

Selectivity ratio rl/pc (P. carinii DHFR)	Structure (SMILES)	FPGS substrate activity [1]
>10	Cc1c(Sc2cccc3ccccc23)oc2nc(N)nc(N)c12 [Compound 6, 2,4-Diamino-5-methyl-6-(1-naphthylthio)furo[2,3-d]pyrimidine]	
	Cc1c(Sc2ccc(C(=O)N[C@@H](CCC(=O)O)C(=O)O)cc2)[nH]c2nc(N)nc(N)c12 [Compound 4]	reasonable FPGS substrate activity
